# Source: ChEMBL document CHEMBL3885881, “DrugMatrix”
# Species on record: Rattus norvegicus
# Assay: DrugMatrix - Regimen: Daily Repeat
# Type: toxicity, organism-based, Sprague-Dawley
# Design: regimen Daily Repeat, gender Male, age 6-8 weeks
# Conditions: in vivo, po, route oral GAVAGE, vehicle 100 % WATER; for ABSOLUTE BASOPHIL / ABSOLUTE EOSINOPHIL / ABSOLUTE LYMPHOCYTE / ABSOLUTE MONOCYTE / ABSOLUTE SEGMENTED NEUTROPHIL / BASOPHIL / EOSINOPHIL / ERYTHROCYTE COUNT / HEMATOCRIT / HEMOGLOBIN / LEUKOCYTE COUNT / LYMPHOCYTE / MEAN CORPUSCULAR HEMOGLOBIN / MEAN CORPUSCULAR HEMOGLOBIN CONCENTRATION / MEAN CORPUSCULAR VOLUME / MONOCYTE / NEUTROPHIL / NUCLEATED RED BLOOD CELLS / PLATELET COUNT: tissue Blood; for ALANINE AMINOTRANSFERASE / ALBUMIN / ALKALINE PHOSPHATASE / ASPARTATE AMINOTRANSFERASE / BLOOD UREA NITROGEN / CARBON DIOXIDE / CHLORIDE / CHOLESTEROL / CREATINE PHOSPHOKINASE / CREATININE / GLUCOSE / LACTATE DEHYDROGENASE / LIPASE / PHOSPHORUS / POTASSIUM / SODIUM / TOTAL BILIRUBIN / TOTAL PROTEIN / URIC ACID: tissue Plasma
# [1] = 27 mg/kg, 72 h, dose level High, time 3 day
# [2] = 27 mg/kg, 120 h, dose level High, time 5 day
# [3] = […], 72 h, dose 2.7 mg/Kg, dose level Low, time 3 day
# [4] = […], 120 h, dose 2.7 mg/Kg, dose level Low, time 5 day
structure (smiles),measurement,setting,value
NNCCc1ccccc1 [PHENELZINE],ABSOLUTE BASOPHIL,[1],0 CELLS/uL
same,ABSOLUTE EOSINOPHIL,[1],54.67 CELLS/uL
same,ABSOLUTE LYMPHOCYTE,[1],7424 CELLS/uL
same,ABSOLUTE MONOCYTE,[1],106.67 CELLS/uL
same,ABSOLUTE SEGMENTED NEUTROPHIL,[1],481.33 CELLS/uL
same,BASOPHIL,[1],0%
same,EOSINOPHIL,[1],0.67%
same,ERYTHROCYTE COUNT,[1],5.49 x10E6/uL
same,HEMATOCRIT,[1],35.1%
same,HEMOGLOBIN,[1],14.03 G/DL
same,LEUKOCYTE COUNT,[1],8.07 x10E3/uL
same,LYMPHOCYTE,[1],92%
same,MEAN CORPUSCULAR HEMOGLOBIN,[1],25.57 pg
same,MEAN CORPUSCULAR HEMOGLOBIN CONCENTRATION,[1],39.97 G/DL
same,MEAN CORPUSCULAR VOLUME,[1],63.93 fL
same,MONOCYTE,[1],1.33%
same,NEUTROPHIL,[1],6%
same,NUCLEATED RED BLOOD CELLS,[1],0 /100WBC
same,PLATELET COUNT,[1],1341.67 x10E3/uL
same,ALANINE AMINOTRANSFERASE,[1],25.67 u/L
same,ALBUMIN,[1],4.5 G/DL
same,ALKALINE PHOSPHATASE,[1],356.33 u/L
same,ASPARTATE AMINOTRANSFERASE,[1],75.67 u/L
same,BLOOD UREA NITROGEN,[1],16.67 mg/dL
same,CARBON DIOXIDE,[1],31 mmol/L
same,CHLORIDE,[1],102.33 MEQ/L
same,CHOLESTEROL,[1],78.33 mg/dL
same,CREATINE PHOSPHOKINASE,[1],265 u/L
same,CREATININE,[1],0.16 mg/dL
same,GLUCOSE,[1],143 mg/dL
same,LACTATE DEHYDROGENASE,[1],131.33 u/L
same,LIPASE,[1],9.33 u/L
same,PHOSPHORUS,[1],11.73 mg/dL
same,POTASSIUM,[1],6.74 MEQ/L
same,SODIUM,[1],145.43 MEQ/L
same,TOTAL BILIRUBIN,[1],0.23 mg/dL
same,TOTAL PROTEIN,[1],6.07 G/DL
same,URIC ACID,[1],1.23 mg/dL
same,ABSOLUTE BASOPHIL,[2],0 CELLS/uL
same,ABSOLUTE EOSINOPHIL,[2],69.33 CELLS/uL
same,ABSOLUTE LYMPHOCYTE,[2],8987.33 CELLS/uL
same,ABSOLUTE MONOCYTE,[2],88.33 CELLS/uL
same,ABSOLUTE SEGMENTED NEUTROPHIL,[2],388.33 CELLS/uL
same,BASOPHIL,[2],0%
same,EOSINOPHIL,[2],0.67%
same,ERYTHROCYTE COUNT,[2],6.17 x10E6/uL
same,HEMATOCRIT,[2],39.07%
same,HEMOGLOBIN,[2],15.3 G/DL
same,LEUKOCYTE COUNT,[2],9.53 x10E3/uL
same,LYMPHOCYTE,[2],94.33%
same,MEAN CORPUSCULAR HEMOGLOBIN,[2],24.8 pg
same,MEAN CORPUSCULAR HEMOGLOBIN CONCENTRATION,[2],39.17 G/DL
same,MEAN CORPUSCULAR VOLUME,[2],63.33 fL
same,MONOCYTE,[2],1%
same,NEUTROPHIL,[2],4%
same,NUCLEATED RED BLOOD CELLS,[2],0 /100WBC
same,PLATELET COUNT,[2],1357.33 x10E3/uL
same,ALANINE AMINOTRANSFERASE,[2],18.67 u/L
same,ALBUMIN,[2],4.37 G/DL
same,ALKALINE PHOSPHATASE,[2],271 u/L
same,ASPARTATE AMINOTRANSFERASE,[2],103.33 u/L
same,BLOOD UREA NITROGEN,[2],26 mg/dL
same,CARBON DIOXIDE,[2],23 mmol/L
same,CHLORIDE,[2],110 MEQ/L
same,CHOLESTEROL,[2],68.33 mg/dL
same,CREATINE PHOSPHOKINASE,[2],320.33 u/L
same,CREATININE,[2],0.2 mg/dL
same,GLUCOSE,[2],155 mg/dL
same,LACTATE DEHYDROGENASE,[2],594.67 u/L
same,LIPASE,[2],10 u/L
same,PHOSPHORUS,[2],11.2 mg/dL
same,POTASSIUM,[2],5.16 MEQ/L
same,SODIUM,[2],150.7 MEQ/L
same,TOTAL BILIRUBIN,[2],0.17 mg/dL
same,TOTAL PROTEIN,[2],6 G/DL
same,URIC ACID,[2],1.43 mg/dL
same,ABSOLUTE BASOPHIL,[3],0 CELLS/uL
same,ABSOLUTE EOSINOPHIL,[3],60.67 CELLS/uL
same,ABSOLUTE LYMPHOCYTE,[3],9104.67 CELLS/uL
same,ABSOLUTE MONOCYTE,[3],151.67 CELLS/uL
same,ABSOLUTE SEGMENTED NEUTROPHIL,[3],949.67 CELLS/uL
same,BASOPHIL,[3],0%
same,EOSINOPHIL,[3],0.67%
same,ERYTHROCYTE COUNT,[3],5.11 x10E6/uL
same,HEMATOCRIT,[3],32.4%
same,HEMOGLOBIN,[3],12.97 G/DL
same,LEUKOCYTE COUNT,[3],10.27 x10E3/uL
same,LYMPHOCYTE,[3],88%
same,MEAN CORPUSCULAR HEMOGLOBIN,[3],25.37 pg
same,MEAN CORPUSCULAR HEMOGLOBIN CONCENTRATION,[3],40.03 G/DL
same,MEAN CORPUSCULAR VOLUME,[3],63.37 fL
same,MONOCYTE,[3],1.67%
same,NEUTROPHIL,[3],9.67%
same,NUCLEATED RED BLOOD CELLS,[3],0 /100WBC
same,PLATELET COUNT,[3],935.33 x10E3/uL
same,ALANINE AMINOTRANSFERASE,[3],55.33 u/L
same,ALBUMIN,[3],4.33 G/DL
same,ALKALINE PHOSPHATASE,[3],325.33 u/L
same,ASPARTATE AMINOTRANSFERASE,[3],98 u/L
same,BLOOD UREA NITROGEN,[3],15.33 mg/dL
same,CARBON DIOXIDE,[3],33 mmol/L
same,CHLORIDE,[3],101.67 MEQ/L
same,CHOLESTEROL,[3],78.33 mg/dL
same,CREATINE PHOSPHOKINASE,[3],665.67 u/L
same,CREATININE,[3],0.17 mg/dL
same,GLUCOSE,[3],155 mg/dL
same,LACTATE DEHYDROGENASE,[3],181.67 u/L
same,LIPASE,[3],9 u/L
same,PHOSPHORUS,[3],12.03 mg/dL
same,POTASSIUM,[3],6.23 MEQ/L
same,SODIUM,[3],144.83 MEQ/L
same,TOTAL BILIRUBIN,[3],0.17 mg/dL
same,TOTAL PROTEIN,[3],5.93 G/DL
same,URIC ACID,[3],1.23 mg/dL
same,ABSOLUTE BASOPHIL,[4],0 CELLS/uL
same,ABSOLUTE EOSINOPHIL,[4],42 CELLS/uL
same,ABSOLUTE LYMPHOCYTE,[4],10324 CELLS/uL
same,ABSOLUTE MONOCYTE,[4],37 CELLS/uL
same,ABSOLUTE SEGMENTED NEUTROPHIL,[4],997 CELLS/uL
same,BASOPHIL,[4],0%
same,EOSINOPHIL,[4],0.33%
same,ERYTHROCYTE COUNT,[4],5.61 x10E6/uL
same,HEMATOCRIT,[4],36.03%
same,HEMOGLOBIN,[4],14.1 G/DL
same,LEUKOCYTE COUNT,[4],11.4 x10E3/uL
same,LYMPHOCYTE,[4],90.67%
same,MEAN CORPUSCULAR HEMOGLOBIN,[4],25.13 pg
same,MEAN CORPUSCULAR HEMOGLOBIN CONCENTRATION,[4],39.2 G/DL
same,MEAN CORPUSCULAR VOLUME,[4],64.23 fL
same,MONOCYTE,[4],0.33%
same,NEUTROPHIL,[4],8.67%
same,NUCLEATED RED BLOOD CELLS,[4],0 /100WBC
same,PLATELET COUNT,[4],1075 x10E3/uL
same,ALANINE AMINOTRANSFERASE,[4],41.33 u/L
same,ALBUMIN,[4],4.57 G/DL
same,ALKALINE PHOSPHATASE,[4],403 u/L
same,ASPARTATE AMINOTRANSFERASE,[4],105.67 u/L
same,BLOOD UREA NITROGEN,[4],21.67 mg/dL
same,CARBON DIOXIDE,[4],25.67 mmol/L
same,CHLORIDE,[4],101.67 MEQ/L
same,CHOLESTEROL,[4],67 mg/dL
same,CREATINE PHOSPHOKINASE,[4],480.33 u/L
same,CREATININE,[4],0.33 mg/dL
same,GLUCOSE,[4],130.33 mg/dL
same,LACTATE DEHYDROGENASE,[4],623.33 u/L
same,LIPASE,[4],11.33 u/L
same,PHOSPHORUS,[4],12.7 mg/dL
same,POTASSIUM,[4],6.78 MEQ/L
same,SODIUM,[4],142.87 MEQ/L
same,TOTAL BILIRUBIN,[4],0.27 mg/dL
same,TOTAL PROTEIN,[4],6.3 G/DL
same,URIC ACID,[4],1.63 mg/dL
